Like-named read-outs stand apart in the source and are kept apart here.
What was measured:
[1] = Hydrolysis of 1-amino-1-deoxy-N-acetylglucosamine to 2-acetamido-2-deoxy-D-glucose in 50 mM phosphate p2H 7.0 buffer, followed by 1H NMR; format: physicochemical; conditions: for Pseudo-first order rate constant for hydrolysis: calculated
Description: To a solution of 1 mg of turkey ovomucoid glycopeptide (a heterogeneous mixture of three structurally related complex type oligosaccharides purified as described by E. M. Taga et al., Biochemistry, 23, 815-822 (1984)) in 50 mM phosphate, p^2 H 7.0 buffer in 99.96% ^2 H2 O equilibrated at the desired temperature was added the almond amidohydrolase enzyme to give a total volume of 0.5 ml. The reaction was followed by ^1 H NMR. The hydrolysis of 1-amino-1-deoxy-N-acetylglucosamine in 50 mM phosphate, p^2 H 7.0, buffer in 99.96% ^2 H2 O to 2-acetamido-2-deoxy-D-glucose was followed by ^1 H NMR as a reference compound. The proton peaks of interest were integrated and the pseudo first-order rate constant was calculated from the slope of a plot of the natural logarithm of the peak area as a function of time.
The rate of hydrolysis for the model compound was readily measured using ^1 H NMR. Upon hydrolysis, the ^1 H NMR signal for the anomeric proton of the model compound shifts downfield from 4.189 ppm (J1,2 =9.35 Hz) to 5.195 ppm (J1,2 =3.38 Hz) and 4.709 ppm (J1,2 =3.38 Hz), the former the alpha-anomer and the latter the beta-anomer of the product, N-acetylglucosamine, while the chemical shift of the N-acetyl group is unchanged. The pseudo-first order rate constants for the enzyme-catalyzed reaction and for the hydrolysis of the model compound are given in Table I; based on least squares standard error analysis, the precision in the pseudo-first order rate constant is ±5%. These limited data give energies of activation for the enzyme-catalyzed reaction of 9.5 kcal […] and for the model compound of 17.7 kcal mol^1.

[2] = cited from earlier work

SMILES: CC(=O)N[C@@H]1[C@@H](O)[C@H](O)[C@@H](CO)O[C@H]1N [1-Amino-N-acetylglucosamine, 1-amino-1-deoxy-N-acetylglucosamine]
- Pseudo-first order rate constant for hydrolysis ([1]; p2H 7.0, 24 °C): 1.08 10^3 × k (min^-1)
- Pseudo-first order rate constant for hydrolysis ([1]; p2H 7.0, 39 °C): 4.56 10^3 × k (min^-1)
- Energy of activation for hydrolysis of the model compound ([1]; p2H 7.0, from rate constants of Table I): 17.7 kcal mol^1
- Pseudo-first order rate constant for hydrolysis ([2]; p2H 7.0, 22 °C): 0.88 10^3 × k (min^-1)
- Pseudo-first order rate constant for hydrolysis ([2]; p2H 7.0, 37 °C): 3.81 10^3 × k (min^-1)
